US12678440B2, “Compositions and methods for treating misfolded protein ocular disorders” (CASE WESTERN RESERVE UNIVERSITY, priority 2020, dated 2026)

Columns and labels:
[1] = test system: chymotrypsin-like proteasome activity; assay: Proteasome activity assay (Proteasome-Glo); type: cell-based; settings: NIH3T3 (RHO^P23H/GFP) and NIH3T3 (RHO^WT/GFP) cells; 0.0195 to 10 μM, 24 h
Description: NIH3T3 (RHO^P23H/GFP), NIH3T3 (RHO^WT/GFP) and NIH3T3 cells were seeded in a white-wall clear-bottom 384-well plate at 2500 cells/well in 20 μL of complete mediu. After 3 h of incubation, five μL/well of complete medium containing MTX was added to cells to treat cells with MTX at final concentrations from 0.0195 to 10 μM for 24 h. The cells treated with a complete medium containing 0.1% DMSO were used as the 100% control, and those treated with 5 μM MG-132 for 8 h were used as the 0% control. For endpoint proteasome activity measurement, each well was added with 25 μL of Proteasome-Glo™ Reagent containing the Suc-LLVY-Glo™ substrate (Promega, G8660, Madison, WI USA). The 384-well plate was shaken for 2 min to mix the solutions followed by a 24-min incubation at room temperature. Luminescence of each well was detected by a SpectraMax 13× microplate reader (Molecular Devices). The chymotrypsin-like proteasome activity was normalized by the 100% and 0% controls, respectively.

Rho^P23H/+ mice = assay: Retinal immunohistochemistry (IHC) after intravitreal injection; type: in vivo, mouse
Description: The C57BL/6J (Rho^+/+) mice and Rho^P23H/P23H mice were purchased from Jackson Laboratory (Stock No 017628) generated by Dr. Krzysztof Palczewski's lab. The Rho^P23H/P23H mice were crossed with wild-type C57BL/6J mice to produce P23H heterozygotes mice. Genotyping for all strains was conducted as guided using forward and reverse primers: 1) GGTAGCACTGTTGGGCATCT (SEQ ID NO: 5); and 2) GACCCCACAGAGACAAGCTC (SEQ ID NO: 6), respectively. The PCR products at 573 and 399 bp indicated the P23H knock-in mutant and WT allele of the RHO gene, respectively. Mice were bred and housed under standard 12-h light/12-h dark conditions in the University of Pittsburgh animal facility. All animal experiments were approved by the University of Pittsburgh Institutional Animal Care and Use Committee (IACUC) following the guide for the Animal Welfare Act and Regulations.
To determine the effect of compounds on retina in vivo, we administered compounds directly into the vitreous space. Briefly, mice were treated with 1% tropicamide eye drops (Akorn, Lake Forest, IL USA) to dilate the pupils and then they were anesthetized with an intraperitoneal injection of ketamine (Henry Schein, Dublin, OH USA) at 80 mg/kg body weight (bw) and xylazine (Bimeda, Le Sueur, MN USA) at 7 mg/kg bw. One drop of 0.5% tetracaine hydrochloride (TCI, Tokyo, Japan) was applied to mouse eyes as topical anesthetics before injection. Eyes were kept lubricated during the injections by a 0.3% hypromellose eye gel (Alcon, Fort Worth, TX USA). A heating pad was used for maintaining body temperature. Mice were positioned to expose the sclera of the eyes. A 30-gauge needle (Medline, Northfield, IL USA) was used to puncture a hole through sclera behind limbus at a 45° angle. A 33-gauge blunt-end needle (Hamilton, Reno, NV USA) was used to be inserted into the hole and a total of 0.5 μL of sterile PBS or MTX in PBS was slowly injected into the posterior chamber and the needle was kept in place for about 30 seconds before a slow removal of the needle. A small amount of Triantibiotic ointment (Medline, Northfield, IL USA) was applied on the injection site to prevent infection. A single IVI with 25 or 100 pmol of MTX was administered to one eye of each Rho^P23H/+ mice at postnatal day (PND) 15, and PBS was injected to the other eye as vehicle control. We also performed four weekly IVIs of MTX or PBS to the second group of Rho^P23H/+ mouse eyes at PND 15, 22, 29 and 36.
Eyes were enucleated by a pair of curved-tip forceps and fixed in the freshly prepared 4% paraformaldehyde for 2 h. Fixed eyes were dehydrated sequentially in 5, 10, 20 and 40% sucrose solutions in PBS each for 30 min at room temperature. Finally, eyes were incubated in a mixture of 40% sucrose in PBS and O.C.T. compound (FisherScientific, Houston, TX USA) at 1:1 volume ratio for overnight at 4° C. before they are embedded in the same mixed solution in an orientation-specific manner and frozen in liquid nitrogen-bathed isobutene. Twelve-micron retinal cross-sections were made by a microtome at −16° C. and those containing the optic nerve head were applied onto a SuperFrost glass slide (FisherScientific, Houston, TX USA). These slides were then used for IHC. After rehydration and permeabilization in PBST for 15 min, retinal sections were incubated in 5% goat serum for 30 min, and then they were incubated with PBS containing the mouse 1D4 anti-rhodopsin antibody (20 μg/mL) for 2 hours at room temperature in a humidified chamber. The retinal sections were washed with PBST for four times and incubated with Cy3 conjugated goat anti-mouse antibody (5 μg/mL) for 1 hour at room temperature. Hoechst 33342 (1:10000 dilution) was applied for 5 min to stain the nuclei. Sections were mounted with the ProlongGold mounting solution (ThermoFisher, Waltham, MA USA). Immunofluorescence images were then taken by a fluorescence microscope for low-magnification images and a confocal microscope for high-magnification images. […]

[2] = test system: P23H rhodopsin in Rho^P23H/P23H mice; assay: Retinal immunoblotting of P23H rhodopsin after IVI in Rho^P23H/P23H mice; type: in vivo, mouse; settings: IVI 25 pmol at PND 15; 24, 48 and 72 h; vs PBS; data not shown
Description: Cells were seeded in 6-well plates at a density of 5×10^5 cells/well and cultured at 37° C. with 5% CO2 for 17 h. The medium was replaced with a fresh medium containing a corresponding concentration of compounds. After treatment for 24 h, cells collected and lysed in 150 μL PBS containing 0.1% SDS and complete protease inhibitor cocktail with 12 s of sonication on ice. Retina samples were lysed in 300 μL per retina of PBS containing 0.1% SDS and complete protease inhibitor cocktail under 24 s of sonication on ice. Protein concentrations were determined by measurements of OD280 nm using a Nanodrop spectrometer. To immunoblot rhodopsin, one hundred μg of total protein for NIH3T3 (RHO^P23H/GFP) cells, or twenty μg of total protein for NIH3T3 (RHO^WT/GFP) cells was loaded per well onto an SDS-PAGE gel. To detect other proteins, fifty μg of total protein was loaded per well. After separation by electrophoresis in 10% and 16% SDS-PAGE gels, proteins were transferred to a nitrocellulose membrane using a wet membrane electrotransfer cassette followed by blocking with 5% bovine serum albumin in PBS containing 0.05% Tween 20 for 1 h. The membranes were incubated with primary antibodies at 4° C. overnight following with appropriate secondary antibodies for 1 h at room temperature. […]

[3] = four IVIs of 25 pmol, PND 46, vs PBS, superior side, not inferior side
[4] = single IVI 25 pmol, PND 33, vs PBS, superior side, not inferior side

CN(Cc1cnc2nc(N)nc(N)c2n1)c1ccc(C(=O)N[C@@H](CCC(=O)O)C(=O)O)cc1 [CL-009, N-[4-[[(2,4-diamino-6-pteridinyl)methyl]methylamino]benzoyl]-L-glutamic acid]
chymotrypsin-like proteasome activity [1]: did not affect
retinal degeneration caused by MTX (Rho^P23H/+ mice; 100 pmol IVI, Rho^P23H/+ mice): did not see obvious retinal degeneration
level of rhodopsin in the ONL (IHC) (Rho^P23H/+ mice; [3]): lower
levels of rhodopsin in the OS (IHC) (Rho^P23H/+ mice; [3]): significantly higher
nucleus number in the ONL (Rho^P23H/+ mice; [3]): higher
rhodopsin in the OS (IHC) (Rho^P23H/+ mice; [4]): significant increase
total rhodopsin level in retinae (IHC) (Rho^P23H/+ mice; [4]): significant increase
ONL nucleus number (Rho^P23H/+ mice; single IVI, PND 33, either side of the retina): No change
P23H rhodopsin level by retinal immunoblotting [2]: did not see consistently and statistically significant difference
